# Data: PubChem BioAssay (NCI)
#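 Growth conditions: 96-well plates. Treatment: test compound, 48 hours, 5 concentrations. Analysis: linear interpolation between bracketing concentrations; unreached endpoints set to highest concentration. Here, GI50 denotes the concentration required for 50% inhibition of growth. TGI denotes the concentration required for complete inhibition of growth.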
# Experiments:
# Assay in all cases: inhibition of tumour cell growth, NCI panel, 48 h
# EKVX NSCLC = test system: EKVX NSCLC
# HCT-15 colon = test system: HCT-15 colon
# NCI-H522 lung = test system: NCI-H522 lung
# OVCAR-4 ovarian = test system: OVCAR-4 ovarian
# OVCAR-8 ovarian = test system: OVCAR-8 ovarian
# SF-295 CNS = test system: SF-295 CNS
# SK-MEL-2 melanoma = test system: SK-MEL-2 melanoma
# SK-MEL-28 melanoma = test system: SK-MEL-28 melanoma
# SN12C renal = test system: SN12C renal
# DU-145 prostate = test system: DU-145 prostate
Structure (SMILES),TGI (EKVX NSCLC),TGI (HCT-15 colon),TGI (NCI-H522 lung),TGI (OVCAR-4 ovarian),TGI (OVCAR-8 ovarian),TGI (SF-295 CNS),TGI (SK-MEL-2 melanoma),TGI (SK-MEL-28 melanoma),TGI (SN12C renal),GI50 (DU-145 prostate),TGI (DU-145 prostate),GI50 (EKVX NSCLC),GI50 (HCT-15 colon),GI50 (OVCAR-4 ovarian),GI50 (SF-295 CNS),GI50 (SK-MEL-2 melanoma),GI50 (SK-MEL-28 melanoma),GI50 (SN12C renal),GI50 (NCI-H522 lung),GI50 (OVCAR-8 ovarian)
Cc1cccc(NC(=O)CC2C(=O)Nc3ccccc3S2(=O)=O)c1C (stereo not given),> 100 µM,> 100 µM,33.4 µM,32.1 µM,44.4 µM,> 100 µM,75.4 µM,> 100 µM,> 100 µM,–,–,–,–,–,–,–,–,–,–,–
Cc1ccccc1NC(=O)C(=O)Cc1nc2ccccc2s1,–,> 100 µM,> 100 µM,> 100 µM,> 100 µM,> 100 µM,> 100 µM,> 100 µM,> 100 µM,–,–,–,–,–,–,–,–,–,–,–
CC1CC2C3CC(F)C4=CC(=O)C=CC4(C)C3(F)C(O)CC2(C)C1(O)C(=O)CO (stereo not given),> 100 µM,> 100 µM,> 100 µM,> 100 µM,–,> 100 µM,> 100 µM,> 100 µM,–,–,–,–,–,–,–,–,–,–,–,–
CN(C)CC1(C)CC/C(=C\c2ccc3c(c2)OCO3)C1=O (stereo not given),–,> 100 µM,> 100 µM,> 100 µM,> 100 µM,> 100 µM,> 100 µM,> 100 µM,> 100 µM,–,–,–,–,–,–,–,–,–,–,–
CCCCCN(CCCCC)C(=O)[C@@H](CCC(=O)OCc1ccccc1)NC(=O)c1cc2ccccc2[nH]1,> 100 µM,> 100 µM,> 100 µM,> 100 µM,> 100 µM,> 100 µM,> 100 µM,> 100 µM,> 100 µM,–,–,–,–,–,–,–,–,–,–,–
CC1CC(=O)C(C(O)CC2CC(=O)N(c3ccccc3)C(=O)C2)C(C)C1 (stereo not given),> 100 µM,–,> 100 µM,> 100 µM,> 100 µM,> 100 µM,–,> 100 µM,> 100 µM,–,–,–,–,–,–,–,–,–,–,–
COCCN1C2=CCCCC2=Nc2c(N)nc(N)nc21,–,> 100 µM,> 100 µM,–,> 100 µM,> 100 µM,> 100 µM,> 100 µM,> 100 µM,–,–,–,–,–,–,–,–,–,–,–
COC(=O)C(C(=O)C(=O)Nc1ccccc1OC)c1csc(-n2nc(-c3ccccc3)cc2-c2ccccc2)n1 (stereo not given),> 100 µM,> 100 µM,> 100 µM,> 100 µM,> 100 µM,–,–,–,> 100 µM,–,–,–,–,–,–,–,–,–,–,–
O=C(Nc1cc(C(F)(F)F)ccc1Cl)C(=O)C(C(=O)c1ccc2ccccc2c1)C1OC(=O)c2ccccc21 (stereo not given),34.8 µM,30.1 µM,20 µM,> 59.3 µM,24.8 µM,27.6 µM,28.7 µM,13.1 µM,21 µM,–,–,–,–,–,–,–,–,–,–,–
O=C(O)C1Cc2nc[nH]c2CN1 (stereo not given),> 100 µM,> 100 µM,> 100 µM,> 100 µM,> 100 µM,> 100 µM,> 100 µM,> 100 µM,> 100 µM,–,–,–,–,–,–,–,–,–,–,–
N/C(=N\C(=S)N1CCCCC1)N1CCCCC1,> 100 µM,> 100 µM,> 100 µM,> 100 µM,> 100 µM,> 100 µM,> 100 µM,> 100 µM,> 100 µM,–,–,–,–,–,–,–,–,–,–,–
CC(NC1CCC[C@H]1O)c1ccccc1 (mixture of isomers),> 100 µM,> 100 µM,> 100 µM,> 100 µM,> 100 µM,> 100 µM,> 100 µM,> 100 µM,> 100 µM,–,–,–,–,–,–,–,–,–,–,–
Clc1ccc2c(NCCCN3CCN(c4nc(-n5ccnc5)nc5ccccc45)CC3)ccnc2c1,> 100 µM,3.8 µM,> 22.3 µM,> 100 µM,–,3.52 µM,> 22.1 µM,3.34 µM,> 100 µM,> 100 µM,> 100 µM,> 28.4 µM,1.61 µM,> 100 µM,1.88 µM,12.3 µM,1.8 µM,> 100 µM,–,–
Oc1cccc(C2SCc3nc4ccccc4n32)c1 (stereo not given),> 100 µM,–,> 100 µM,–,> 100 µM,> 100 µM,> 100 µM,> 100 µM,> 100 µM,–,–,–,–,–,–,–,–,–,–,–
Nc1nc(N)c(-c2ccccc2)c(C(=O)Nc2ccc(Cl)c(Cl)c2)n1,> 100 µM,> 100 µM,–,> 100 µM,> 100 µM,> 100 µM,> 100 µM,> 100 µM,> 100 µM,–,–,–,–,–,–,–,–,–,–,–
C=C(C)C1CC[C@]2(C(=O)O)CCC3(C)[C@H](CCC4[C@@]5(C)CC[C@H](OC6OC(CO)C(O)C6OC6OC(C)C(O)C(O)C6O)[C@@](C)(CO)C5CC[C@]43C)C12 (stereo not given in full),> 100 µM,> 100 µM,> 100 µM,> 100 µM,> 100 µM,> 100 µM,> 100 µM,> 100 µM,> 100 µM,–,–,–,–,–,–,–,–,–,–,–
O=C1CCC(=O)c2cc(Br)ccc2N1,> 100 µM,> 100 µM,> 100 µM,> 100 µM,> 100 µM,> 100 µM,> 100 µM,> 100 µM,> 100 µM,–,–,–,–,–,–,–,–,–,–,–
Cc1ccc(NC(=O)SCCC(=O)O)cc1NC(=O)SCCC(=O)O,> 100 µM,> 100 µM,> 100 µM,> 100 µM,> 100 µM,> 100 µM,> 100 µM,> 100 µM,> 100 µM,–,–,–,–,–,–,–,–,–,–,–
COc1cc(C2C(C(=O)O)=C(C)Oc3cc4c(cc32)OCO4)cc(OC)c1OC (stereo not given),> 100 µM,> 100 µM,–,> 100 µM,> 100 µM,59.5 µM,–,> 100 µM,> 100 µM,–,–,–,–,–,–,–,–,–,–,–
N#Cc1cccc(Nc2nccc(-c3cnn4ncccc34)n2)c1,–,> 25 µM,0.0394 µM,–,> 25 µM,0.0223 µM,0.0105 µM,0.0125 µM,> 25 µM,0.00661 µM,3.46 µM,–,0.0071 µM,0.0322 µM,0.00487 µM,0.00458 µM,0.00408 µM,0.00674 µM,0.00752 µM,0.0065 µM
O=C(N/N=C/c1cc2ccccc2c2ccccc12)c1cc(O)c(O)c(O)c1,–,25.4 µM,5.64 µM,35.8 µM,15.6 µM,32.1 µM,15.9 µM,15.1 µM,30 µM,5.79 µM,27 µM,–,3.22 µM,2.38 µM,14.9 µM,4.25 µM,3.57 µM,4.99 µM,2.06 µM,3.72 µM
COC(=O)C1CCc2c(OC)ccc(OC)c2C1=O (stereo not given),> 100 µM,–,> 100 µM,> 100 µM,> 100 µM,> 100 µM,> 100 µM,> 100 µM,–,–,–,–,–,–,–,–,–,–,–,–
O=C1OC(=O)C2C3CCC(O3)C12 (stereo not given),> 100 µM,–,–,–,> 100 µM,> 100 µM,> 100 µM,> 100 µM,> 100 µM,–,–,–,–,–,–,–,–,–,–,–
COc1ccc(/C=N/NC(=O)O)cc1,> 100 µM,> 100 µM,> 100 µM,> 100 µM,–,> 100 µM,> 100 µM,> 100 µM,> 100 µM,–,> 100 µM,–,–,–,–,–,–,–,–,–
